From PubChem BioAssay AID1332 (Southern Research Institute, 2008) come the findings set out here.

In this assay the test system is M. tuberculosis H37Rv growth inhibition. Briefly: Mycobacterium tuberculosis H37Rv growth inhibition, confirmatory dose response, cytotoxicity (AID 1332).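 Note: bacteria incubated 7 days before adding Alamar blue readout reagent.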

Each structure is given as a SMILES string. Converted amounts (≈) assume the structure as drawn.

`CCN(CC)CCNc1ccc(CO)c2sc3ccccc3c(=O)c12`: the 90% effect concentration (IC90) (in general, the point of the concentration-response curve where the effect stands at 90%) was 19.4 µg/mL (≈ 54.5 µM).
`CCSc1ccc2c(c1)N(CCCN1CCN(C)CC1)c1ccccc1S2`: the IC90 is 6.34 µg/mL (≈ 15.9 µM).
`C=C1C(=O)O[C@@H]2[C@H]3O[C@]3(C)CC/C=C(\C)CC[C@@H]12`: the IC90 is 1.43 µg/mL (≈ 5.76 µM).
The same measure for `COc1cccc2c1C(=O)c1c(O)c3c(c(O)c1C2=O)C[C@@](O)(C(C)=O)C[C@@H]3O[C@H]1C[C@H](N)[C@H](O)[C@H](C)O1`: 0.169 µg/mL (≈ 0.32 µM); for `CCCCC(CC)CN1CN(CC(CC)CCCC)CC(C)(N)C1` (stereo not drawn): 6.85 µg/mL (≈ 20.2 µM); for `CC(=O)O[C@H]1C[C@@]2(C)[C@@H](C[C@@H](O)[C@H]3[C@@]4(C)CC[C@@H](O)[C@@H](C)C4CC[C@@]32C)/C1=C(\CCC=C(C)C)C(=O)O` (stereo partly drawn): 0.586 µg/mL (≈ 1.13 µM).
Turning to `OCCN1CCN(CC/C=C2/c3ccccc3Sc3ccc(C(F)(F)F)cc32)CC1`, the IC90 was 5.46 µg/mL (≈ 12.6 µM).
Turning to `CCCCCCC[N+](CC)(CC)CCCCc1ccc(Cl)cc1`, the 90% effect concentration (IC90) is 15.6 µg/mL.
In the case of `CNCCC=C1c2ccccc2C=Cc2ccccc21`, the IC90 is 17.1 µg/mL (≈ 65.3 µM).
The same measure for `CN(C(=O)CN(CCO)CC(=O)N(C)C(C)(C)Cc1ccccc1)C(C)(C)Cc1ccccc1`: 15.6 µg/mL (≈ 33.4 µM).
As for `Nc1ccc(S(=O)(=O)Nc2nccs2)cc1`, the figure is 1.3 µg/mL (≈ 5.08 µM); as for `CCCCCCCCNC(C)C(O)c1ccc(SC(C)C)cc1` (stereo not drawn), 2.25 µg/mL (≈ 6.67 µM).
Turning to `Cc1nnc(NS(=O)(=O)c2ccc(N)cc2)s1`, the concentration for an effect of 90% (IC90) is 2.6 µg/mL (≈ 9.61 µM).
For the compound `CN(C)[C@@H]1C(=O)C(C(N)=O)=C(O)[C@@]2(O)C(=O)C3=C(O)c4c(O)cccc4[C@@](C)(O)[C@H]3C[C@@H]12`, the IC90 was 6.54 µg/mL (≈ 14.7 µM).
For the compound `Cc1cccc(CN2CCN(C(c3ccccc3)c3ccc(Cl)cc3)CC2)c1` (stereo not drawn), the concentration for an effect of 90% (IC90) is 7.72 µg/mL (≈ 19.7 µM).
As for `C=CCOC(Cn1ccnc1)c1ccc(Cl)cc1Cl` (stereo not drawn), the figure is 2 µg/mL (≈ 6.73 µM); as for `NCC[C@H](O)C(=O)N[C@@H]1C[C@H](N)[C@@H](O[C@H]2O[C@H](CN)[C@@H](O)[C@H](O)[C@H]2O)[C@H](O)[C@H]1O[C@H]1O[C@H](CO)[C@@H](O)[C@H](N)[C@H]1O`, 0.04 µg/mL (≈ 0.0683 µM); as for `CC(C)N1CCN(c2ccc(OC[C@H]3CO[C@](Cn4cncn4)(c4ccc(Cl)cc4Cl)O3)cc2)CC1`, 7.54 µg/mL (≈ 14.2 µM).
As for `CN(C)/N=N/c1nc[nH]c1C(N)=O`, the IC90 is 0.639 µg/mL (≈ 3.51 µM).
For the compound `OCCN1CCN(CCCN2c3ccccc3Sc3ccc(Cl)cc32)CC1`, the IC90 was 11.7 µg/mL (≈ 28.9 µM).
For `CN1CCCC(CC2c3ccccc3Sc3ccccc32)C1` (stereo not drawn), the concentration for an effect of 90% (IC90) was 10.4 µg/mL (≈ 33.7 µM).
On to `Cc1cc(C=Cc2ccc3cc(N(C)C)ccc3[n+]2C)c(C)n1-c1ccccc1`, for which the IC90 is 0.195 µg/mL.
`Cc1cc(N)c2ccccc2[n+]1CCCCCCCCCC[n+]1c(C)cc(N)c2ccccc21`: the 90% effect concentration (IC90) is 1.78 µg/mL.
As for `O=c1c2ccccc2[se]n1-c1ccccc1`, the figure is 2.16 µg/mL (≈ 7.87 µM); as for `CCCCc1oc2ccccc2c1C(=O)c1cc(I)c(OCCN(CC)CC)c(I)c1`, 6.3 µg/mL (≈ 9.76 µM); as for `O=C1OCCN1/N=C/c1ccc([N+](=O)[O-])o1`, 5.4 µg/mL (≈ 24 µM).
For `COc1ccc(C[C@H](N)C(=O)N[C@H]2[C@@H](O)[C@H](n3cnc4c(N(C)C)ncnc43)O[C@@H]2CO)cc1`, the IC90 was 1.75 µg/mL (≈ 3.71 µM).
As to `CC1COc2c(N3CCN(C)CC3)c(F)cc3c(=O)c(C(=O)O)cn1c23` (stereo not drawn), the IC90 is 0.067 µg/mL (≈ 0.185 µM).
In the case of `CO[C@H]1/C=C/O[C@@]2(C)Oc3c(C)c(O)c4c(O)c(c(/C=N/N5CCN(C)CC5)c(O)c4c3C2=O)NC(=O)/C(C)=C\C=C\[C@H](C)[C@H](O)[C@@H](C)[C@@H](O)[C@@H](C)[C@H](OC(C)=O)[C@@H]1C`, the IC90 is 0.04 µg/mL (≈ 0.0486 µM).
As to `CCCCC(CC)CN=C(N)NC(N)=NCCCCCCN=C(N)NC(N)=NCC(CC)CCCC` (stereo not drawn), the IC90 is 0.729 µg/mL (≈ 1.43 µM).
For `CN(C)CC/C=C1\c2ccccc2Sc2ccc(Cl)cc21`, the IC90 was 3.93 µg/mL (≈ 12.4 µM).
The same measure for `CS(=O)(=O)c1ccc([C@@H](O)[C@@H](CF)NC(=O)C(Cl)Cl)cc1`: 2.7 µg/mL (≈ 7.53 µM); for `CCn1cc(C(=O)O)c(=O)c2cc(F)c(N3CCNCC3)nc21`: 4.1 µg/mL (≈ 12.8 µM).
As for `CC(C)COCC(CN(Cc1ccccc1)c1ccccc1)N1CCCC1` (stereo not drawn), the figure is 11.3 µg/mL (≈ 30.7 µM); as for `C(=C\c1ccccc1)/CN1CCN(C(c2ccccc2)c2ccccc2)CC1`, 7.6 µg/mL (≈ 20.6 µM).
As for `CN(CCCCCCCCCCN(C)C(=O)Oc1cccc([N+](C)(C)C)c1)C(=O)Oc1cccc([N+](C)(C)C)c1`, the figure is 2.19 µg/mL; as for `Clc1ccc(COC(Cn2ccnc2)c2ccc(Cl)cc2Cl)c(Cl)c1` (stereo not drawn), 1.82 µg/mL (≈ 4.38 µM).
With `Clc1ccccc1C(c1ccccc1)(c1ccccc1)n1ccnc1`, the concentration for an effect of 90% (IC90) is 5.36 µg/mL (≈ 15.6 µM).
